# Residues, ends and D or L forms follow the SMILES beside them.
# Target: NMDA receptor (Rattus norvegicus, UniProt P35439)
# Assay: [3H] MK-801 binding assay
# Conditions: 50 μM glutamate; for Potency: rat forebrain crude synaptic membranes, [3H]MK-801 5 nM
# Description: Male 2-3 month old rats were decapitated without anesthesia by guillotine, and the brains were rapidly removed (˜90 sec) and whole cortex and hippocampus dissected on an ice cold platform, frozen on dry ice, and stored at −80° C. Samples were homogenized in 20 volumes of ice cold 5 mM Tris-HCl pH 7.4 by Brinkman Polytron and pelleted 48,000×g for 20 min at 4° C., and washed an additional 3 times as described above. Membranes were then resuspended in 5 mM EDTA and 15 mM Tris-HCl pH 7.4 and incubated for 1 hr at 37° C., membranes pelleted at 48,000×g for 20 min at 4° C., snap frozen in liquid nitrogen, and stored at −80° C. On the day of the experiment, membranes were thawed at room temperature and washed an additional 7 times in ice cold 5 mM Tris-HCl (pH 7.4) as described above. After the last wash, membranes were resuspended in assay buffer (5 mM Tris-acetate pH 7.4), and protein content was determined by the BCA assay.
# [^3H] […] Then the tubes were washed three times with assay buffer (5 mM Tris-acetate PH 7.4), and the filters were analyzed by liquid scintillation to calculate the disintegrations per minute (DPM). Zero levels were determined in the absence of any glycine ligand and in the presence of 30 μM 5,7-Dichlorokynurenic acid (5,7-DCKA). Maximal stimulation was measured in the presence of 1 mM glycine. 50 μM glutamate was present in all samples.
# For each data point (i.e., a single concentration of the test compound), the % maximal [^3H]
# The efficacy for each compound, expressed as the % increase in [^3H]
Compound,Potency [pM],"Efficacy (% Increase in [3H] MK-801 Binding) (best-fit top value, relative to 1 mM glycine maximal stimulation) [%]"
"C[C@@H](O)[C@H](NC(=O)[C@@H]1CCCN1C(=O)[C@@H]1CCCN1C(=O)[C@@H](N)CO)C(N)=O [Compound A, (S)—N-((2S,3R)-1-amino-3-hydroxy-1-oxobutan-2-yl)-1-((S)-1-((S)-2-amino-3-hydroxypropanoyl)pyrrolidine-2-carbonyl)pyrrolidine-2-carboxamide] (H-SPPT-NH2)",5,–
"NC(=O)[C@H](CO)NC(=O)[C@@H]1CCCN1C(=O)[C@@H]1CCCN1C(=O)[C@@H](N)CO [Compound C, (S)—N—((S)-1-amino-3-hydroxy-1-oxopropan-2-yl)-1-((S)-1-((S)-2-amino-3-hydroxy-propanoyl)-pyrrolidine-2-carbonyl)-pyrrolidine-2-carboxamide] (H-SPPS-NH2)",16,–
"C[C@@H](O)[C@H](N)C(=O)N1CCC[C@H]1C(=O)N1CCC[C@H]1C(=O)N[C@@H](CO)C(N)=O [Compound B, (S)—N—((S)-1-amino-3-hydroxy-1-oxopropan-2-yl)-1-((S)-1-((2S,3R)-2-amino-3-hydroxybutanoyl)pyrrolidine-2-carbonyl)pyrrolidine-2-carboxamide] (H-TPPS-NH2)",6,24
"C[C@@H](O)[C@H](N)C(=O)N1CCC[C@H]1C(=O)N1CCCC1(Cc1ccccc1)C(=O)N[C@H](C(N)=O)[C@@H](C)O (stereo partly drawn) [E, N-((2S,3R)-1-amino-3-hydroxy-1-oxobutan-2-yl)-1-((S)-1-((2S,3R)-2-amino-3-hydroxybutanoyl)-pyrrolidine-2-carbonyl)-2-benzylpyrrolidine-2-carboxamide]",0.2,–
